Measured values from US10219516B2, “Molecules having pesticidal utility, and intermediates, compositions, and processes, related thereto” (priority 2015, dated 2019).

Columns and labels:
[1] = tested on: Beet Armyworm (Spodoptera exigua, LAPHEG); assay: Bioassay on Beet Armyworm (BAW), 128-well diet tray assay; assay type: in vivo; conditions: Beet Armyworm, 128-well diet tray assay, read-out: BAW rating
In short: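 In a 128-well format, eight wells per compound received a surface dose of 50 μg/cm^2 on artificial diet. After drying, each well got one to five second instar larvae, held at 25° C. with 14:10 photoperiod. Mortality percentages after five to seven days were averaged.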

[2] = tested on: Cabbage Looper (Trichoplusia ni, TRIPNI); assay: Bioassay on Cabbage Looper (CL), 128-well diet tray assay; assay type: in vivo; conditions: Trichoplusia ni; Cabbage Looper, 128-well diet tray assay; read-out: CL rating
In short: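 Mortality of second instar larvae exposed to diet coated with 50 μg/cm^2 compound (acetone-water 90:10 vehicle, dried); 25° C., 5–7 days.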

With CN(C(=O)OC(C)(C)C)c1ccc(NC(=O)c2cc(NC(=O)[C@H]3[C@H](c4cc(Cl)cc(Cl)c4)C3(Cl)Cl)ccc2Cl)cc1 (relative stereo) [PF12, trans-tert-Butyl-(4-(2-chloro-5-(2,2-dichloro-3-(3,5-dichlorophenyl)cyclopropane-1-carboxamido)benzamido)phenyl)(methyl)carbamate] as the compound, how does the pest or weed control at 50 µg/cm2 [1] read?
The pest or weed control at 50 µg/cm2 was 50 to 100%.

What about the pest or weed control at 50 µg/cm2 [2] of the same compound?
Its pest or weed control at 50 µg/cm2 is 50 to 100%.

Which pest or weed control at 50 µg/cm2 [1] does the source give for CC(=O)N(C)c1ccc(NC(=O)c2cc(NC(=O)[C@H]3[C@H](c4cc(Cl)cc(Cl)c4)C3(Cl)Cl)ccc2Cl)cc1 (relative stereo) [PF14, trans-2-Chloro-5-(2,2-dichloro-3-(3,5-dichlorophenyl)cyclopropane-1-carboxamido)-N-(4-(N-methylacetamido)phenyl)benzamide] here?
Its pest or weed control at 50 µg/cm2 is 50 to 100%.

And the pest or weed control at 50 µg/cm2 [2]?
The pest or weed control at 50 µg/cm2 was 50 to 100%.

Which pest or weed control at 50 µg/cm2 [1] does the source give for COCC(=O)Nc1ccc(NC(=O)c2cc(NC(=O)[C@H]3[C@H](c4cc(Cl)cc(Cl)c4)C3(Cl)Cl)ccc2Cl)cc1 (relative stereo) [PF27, trans-2-Chloro-5-(2,2-dichloro-3-(3,5-dichlorophenyl)cyclopropane-1-carboxamido)-N-(4-(2-methoxyacetamido)phenyl)benzamide] here?
The pest or weed control at 50 µg/cm2 was 50 to 100%.

And the pest or weed control at 50 µg/cm2 [2]?
Its pest or weed control at 50 µg/cm2 is 50 to 100%.

For O=C(Cc1ccccc1)Nc1ccc(NC(=O)c2cc(NC(=O)[C@H]3[C@H](c4cc(Cl)cc(Cl)c4)C3(Cl)Cl)ccc2Cl)cc1 (relative stereo) [PF28, trans-2-Chloro-5-(2,2-dichloro-3-(3,5-dichlorophenyl)cyclopropane-1-carboxamido)-N-(4-(2-phenylacetamido)phenyl)benzamide], which pest or weed control at 50 µg/cm2 [1] is on record?
The pest or weed control at 50 µg/cm2 was 50 to 100%.

And the pest or weed control at 50 µg/cm2 [2]?
Its pest or weed control at 50 µg/cm2 is 50 to 100%.

Which pest or weed control at 50 µg/cm2 [1] does the source give for CN(C(=O)C(F)(F)F)c1ccc(NC(=O)c2cc(NC(=O)[C@H]3[C@H](c4cc(Cl)cc(Cl)c4)C3(Cl)Cl)ccc2Cl)cc1 (relative stereo) [PF29, trans-2-Chloro-5-(2,2-dichloro-3-(3,5-dichlorophenyl)cyclopropane-1-carboxamido)-N-(4-(2,2,2-trifluoro-N-methylacetamido)phenyl)benzamide] here?
The pest or weed control at 50 µg/cm2 was 50 to 100%.

What about the pest or weed control at 50 µg/cm2 [2] of the same compound?
Its pest or weed control at 50 µg/cm2 is 50 to 100%.

What does the source list for O=C(Nc1ccc(F)cc1)c1cc(NC(=O)[C@H]2[C@H](c3ccc(Cl)c(F)c3)C2(Cl)Cl)ccc1Cl (relative stereo) [PF34, trans-2-Chloro-5-(2,2-dichloro-3-(4-chloro-3-fluorophenyl)cyclopropane-1-carboxamido)-N-(4-fluorophenyl)benzamide]?
pest or weed control at 50 µg/cm2 [1]: 50 to 100%; pest or weed control at 50 µg/cm2 [2]: 50 to 100%

How did the pest or weed control at 50 µg/cm2 [1] turn out when O=C(Nc1ccc(F)cc1F)c1cc(NC(=O)[C@H]2[C@H](c3cc(Cl)cc(Br)c3)C2(Cl)Cl)ccc1Cl (relative stereo) [PF39, 5-(trans-3-(3-Bromo-5-chlorophenyl)-2,2-dichlorocyclopropane-1-carboxamido)-2-chloro-N-(2,4-difluorophenyl)benzamide] was run?
The pest or weed control at 50 µg/cm2 was 50 to 100%.

What about the pest or weed control at 50 µg/cm2 [2] of the same compound?
The pest or weed control at 50 µg/cm2 was 50 to 100%.

Which results are given for CC(=O)Nc1ccc(NC(=O)c2cc(NC(=O)[C@H]3[C@H](c4ccc(Cl)c(Cl)c4)C3(Cl)Cl)ccc2Cl)c(F)c1 (relative stereo) [PF41, trans-N-(4-Acetamido-2-fluorophenyl)-2-chloro-5-(2,2-dichloro-3-(3,4-dichlorophenyl)cyclopropane-1-carboxamido)benzamide]?
pest or weed control at 50 µg/cm2 [1]: 50 to 100%; pest or weed control at 50 µg/cm2 [2]: 50 to 100%

With Cc1cc(F)cc(C)c1NC(=O)c1cc(NC(=O)[C@H]2[C@H](c3cc(Cl)cc(Cl)c3)C2(Cl)Cl)ccc1Cl (relative stereo) [PF43, trans-2-Chloro-5-(2,2-dichloro-3-(3,5-dichlorophenyl)cyclopropane-1-carboxamido)-N-(4-fluoro-2,6-dimethylphenyl)benzamide] as the compound, how does the pest or weed control at 50 µg/cm2 [1] read?
The pest or weed control at 50 µg/cm2 was 50 to 100%.

And the pest or weed control at 50 µg/cm2 [2]?
Its pest or weed control at 50 µg/cm2 is 50 to 100%.
